From patent US8389236B2, “Assay” (Otago Innovation Limited, priority 2005, dated 2013)
“And” between values parts separate entries of the source, which are not always exact repeats. Equal values may be shown once.

Experiments:
[1] = test system: HIV-1 gag/pol −1 frameshift signal sequence (HIV-1 frameshift construct); assay: Dual fluorescent reporter (EGFP/DsRed) recoding assay in transiently transfected COS-7 cells, with Null 0 control construct; format: cell-based; settings: for Minus 1 Frameshift Construct EGFP signal, Average / Null 0 Frameshift Construct EGFP signal, Average: 485 excitation 520-P emission; for Minus 1 Frameshift Construct DsRed signal, Average / Null 0 Frameshift Construct DsRed signal, Average: 525 excitation 600LP emission; for Frameshift: DsRed 525 excitation/600LP emission
Protocol: Mammalian COS-7 cells were grown, harvested, trypsinised, washed and diluted to 1×10^5 cells/ml all under standard conditions.
The diluted cells were then split into two equal portions. One portion was transiently transfected with the recoding construct, and other with the Null 0 frame control construct. Transient transfection was performed using 2 μL of FuGENE® 6 transfection reagent (Roche) and 500 ng of DNA for every mL of cells, in accordance with the manufacturing instructions.
Transfected cells were seeded in 24 well plates under standard conditions. Cycloheximide was added in triplicate at 50 nM and the plates were then incubated for 48 hours at 37° C.
The cells were washed 3 times with Phosphate Buffered Saline (PBS) to remove any traces of culture medium. 100 ul of Passive Lysis buffer (Promega) was added. The cells were frozen. The frozen cells were then thawed and transferred to a 96 well plate, and fluorescence intensity was read in the BMG PolarStar plate reader.
Plate reader settings were as follows:
Filters 485 excitation, 520-P emission
Filters 544 excitation, 590 emission
[[DsRed signal: HIV-1 frameshift construct]/[EGFP signal: HIV-1 frameshift construct]]/[[DsRed signal: Null 0 frameshift construct]/[EGFP signal: Null 0 frameshift construct]]
The diluted cells were then split into two equal portions. One portion was transfected, as described in Example 3, with the recoding construct, and other with the Null 0 frame control construct.
Cells were then seeded in 24 well plates under standard conditions. Anisomycin was added in triplicate at 50 nM and the plates were then incubated for 48 hours at 37° C.
The cells were prepared as described in examples 3 and 4.
DsRed signal at 525 excitation, 600LP emission
EGFP signal at 485 excitation, 520-P emission
Frameshift figures, shown in Table 5, were calculated using the formula shown in Example 3 using data from Tables 1, 2, 3 and 4.
Transfected cells were prepared as described in Example 5, and treated with 0 nM (no drug) 100 nM, 200 nM, 300 nM, 400 nM and 500 nM concentrations of anisomycin.
Incubation, plate reader setting and readings were as described in Example 5.
For the anisomycin titrations, the frameshift figures, shown in Table 10, were calculated using the formula shown in Example 3 using data from Tables 6, 7, 8 and 9.

[2] = test system: HIV-1 gag/pol −1 frameshift signal sequence (HIV-1 frameshift construct); assay: Stably transfected dual fluorescent reporter recoding assay in Flp-In CV1 cells (−1 frame construct); format: cell-based; settings: for DsRed/EGFP ratio / Percentage decrease in ratio / Minus 1 Frameshift Construct EGFP signal, Average / Minus 1 Frameshift Construct DsRed signal, Average: 120 hours; for DsRed/EGFP ratio / Percentage decrease in ratio: stable Flp-In CV1 cells; for DsRed/EGFP ratio: not normalised to Null 0, expressed as a percentage; for Percentage decrease in ratio: vs no drug; for Minus 1 Frameshift Construct EGFP signal, Average: 485 excitation 515 emission; for Minus 1 Frameshift Construct DsRed signal, Average: 535 excitation 590 emission
Protocol: The translational recoding construct described above was excised via Hind III and Not I restrictions sites and ligated into a Flp-In™ pcDNA5/FRT expression vector (Invitrogen Life Technologies) before being stably transformed into Flp-In™ CV1 cells (Invitrogen Life Technologies) according to the manufacturer's instructions.
Flp-In CV1 cells (CV1 cells), as described in Example 2, transfected with the −1 frame construct, and untransfected CV1 cells were grown, harvested, trypsinised, washed and diluted to 1×10^5 cells/ml all under standard conditions.
Cells were then seeded in 96 well plates under standard conditions. The plates were then incubated for 120 hours at 37° C.
The cells were washed 3 times with Phosphate Buffered Saline (PBS) to remove any traces of culture medium. 100 ul of Passive Lysis buffer (Promega) was added. The cells were frozen. The frozen cells were then thawed and fluorescence intensity was read in the Tecan Genios Pro plate reader.
Plate reader setting were as follows:
Filters 485 excitation, 515 emission
Filters 535 excitation, 590 emission
As a Null 0 frameshift construct was not used in this experiment ratios of the DsRed to EGFP signal were calculated to take into account the decrease in the EGFP signal with increasing drug concentrations.
The calculation was similar to example 3, with the counts averaged, the control cell counts removed before working out the ratio of the DsRed signal to the EGFP signal. Normalisation using a Null 0 frame construct could not be performed, with the results below being expressed as a percentage. The calculation was a follows: [[DsRed signal: HIV-1 frameshift construct]/[EGFP signal: HIV-1 frameshift construct]]

[3] = 50 nM, 48 hours, 485 excitation, 520-P emission
[4] = 50 nM, 48 hours, 544 excitation, 590 emission
[5] = 100 nM, COS-7, 525/600LP filters, vs no drugs

## C[C@@H]1C[C@@H]([C@H](O)CC2CC(=O)NC(=O)C2)C(=O)[C@@H](C)C1 [Cycloheximide]
[1]; 50 nM, 48 hours, COS-7, 544/590 filters
  decrease in frameshift from the original (no drug) value: 5%
[1]; 50 nM, 48 hours, COS-7, vs no drug control, 544/590 filters
  absolute change frameshift efficiency: 0.29%
[1]; [3]
  EGFP signal, HIV-1 frameshift construct, average: 24268 RFU
  EGFP signal, HIV-1 frameshift construct, average minus control: 23858 RFU
  EGFP signal, Null 0 frameshift construct, average: 42054 RFU
  EGFP signal, Null 0 frameshift construct, average minus control: 41644 RFU
[1]; [4]
  DsRed signal, HIV-1 frameshift construct, average: 1447 RFU
  DsRed signal, HIV-1 frameshift construct, average minus control: 1342 RFU
  DsRed signal, Null 0 frameshift construct, average: 43596 RFU
  DsRed signal, Null 0 frameshift construct, average minus control: 43491 RFU
[1]; 100 nM
  Minus 1 Frameshift Construct EGFP signal, Average: 23068
  Null 0 Frameshift Construct EGFP signal, Average: 41181
  Minus 1 Frameshift Construct DsRed signal, Average: 2384
  Null 0 Frameshift Construct DsRed signal, Average: 39126
[1]; [5]
  Percentage decrease in frameshift: 2.7% and 2.71%
  absolute change in frameshift efficiency: 0.23%
[1]; 100 nM, COS-7
  Frameshift: 8.25%
[1]; 200 nM
  Minus 1 Frameshift Construct EGFP signal, Average: 25793
  Null 0 Frameshift Construct EGFP signal, Average: 42120
  Minus 1 Frameshift Construct DsRed signal, Average: 2567
  Null 0 Frameshift Construct DsRed signal, Average: 40152
[1]; 200 nM, COS-7, 525/600LP filters, vs no drugs
  Percentage decrease in frameshift: 4.51%
[1]; 200 nM, COS-7
  Frameshift: 8.10%
[1]; 300 nM
  Minus 1 Frameshift Construct EGFP signal, Average: 27197
  Null 0 Frameshift Construct EGFP signal, Average: 46595
  Minus 1 Frameshift Construct DsRed signal, Average: 2674
  Null 0 Frameshift Construct DsRed signal, Average: 45168
[1]; 300 nM, COS-7, 525/600LP filters, vs no drugs
  Percentage decrease in frameshift: 6.17%
[1]; 300 nM, COS-7
  Frameshift: 7.96%
[1]; 400 nM
  Minus 1 Frameshift Construct EGFP signal, Average: 27613
  Null 0 Frameshift Construct EGFP signal, Average: 42950
  Minus 1 Frameshift Construct DsRed signal, Average: 2704
  Null 0 Frameshift Construct DsRed signal, Average: 41311
[1]; 400 nM, COS-7, 525/600LP filters, vs no drugs
  Percentage decrease in frameshift: 5.52%
[1]; 400 nM, COS-7
  Frameshift: 8.01%
[1]; 500 nM
  Minus 1 Frameshift Construct EGFP signal, Average: 28615
  Null 0 Frameshift Construct EGFP signal, Average: 42742
  Minus 1 Frameshift Construct DsRed signal, Average: 2790
  Null 0 Frameshift Construct DsRed signal, Average: 41338
[1]; 500 nM, COS-7, 525/600LP filters, vs no drugs
  Percentage decrease in frameshift: 5.66%
[1]; 500 nM, COS-7
  Frameshift: 8.00%
[1]; result in words
  effect on −1 frameshifting: antagonists to −1 frameshifting
[2]; 50 nM
  DsRed/EGFP ratio: 7.38%
  Percentage decrease in ratio: 4.11%
  Minus 1 Frameshift Construct EGFP signal, Average: 11313
  Minus 1 Frameshift Construct DsRed signal, Average: 1220
[2]; 100 nM
  DsRed/EGFP ratio: 7.28%
  Percentage decrease in ratio: 5.39%
  Minus 1 Frameshift Construct EGFP signal, Average: 11262
  Minus 1 Frameshift Construct DsRed signal, Average: 1210
[2]; 500 nM
  DsRed/EGFP ratio: 5.47%
  Percentage decrease in ratio: 28.91%
  Minus 1 Frameshift Construct EGFP signal, Average: 8638
  Minus 1 Frameshift Construct DsRed signal, Average: 948
[2]; 1000 nM
  DsRed/EGFP ratio: 3.25%
  Percentage decrease in ratio: 57.82%
  Minus 1 Frameshift Construct EGFP signal, Average: 7308
  Minus 1 Frameshift Construct DsRed signal, Average: 818
[2]; 2000 nM
  DsRed/EGFP ratio: −2.94%
  Percentage decrease in ratio: 138.27%
  Minus 1 Frameshift Construct EGFP signal, Average: 6285
  Minus 1 Frameshift Construct DsRed signal, Average: 688
[2]; range between 50 nM and 2000 nM, stable cells, result in words
  % decrease in ratio over concentration range: dose responsive effect
